Legend:
hERG S631A = settings: S631A mutation which abolishes inactivation, versus WT; cited from earlier work
hERG Tyr652 and Phe656 = assay: Assessment of cation-π interaction in hERG drug block across fluorinated Phe series; settings: judged from IC50 across Y652 and F656 fluorinated Phe series
Description: Testing whether a cation-π relationship occurs at an aromatic residue can be accomplished by measuring the impact of substitution with a series of fluorinated aromatic amino acids. Successive fluorinations of aromatic side chains yield additive reductions in ability to donate π electrons to cation-π interactions[30]. Through the use of nonsense suppression, we incorporated singly and doubly fluorinated phenylalanine derivatives at both Tyr652 and Phe656. These UAA also have the advantage of providing a sterically conservative means of studying the specific nature of interactions of individual residues. If hERG drug interactions depend largely on cation-π binding interactions at sites Tyr652 and Phe656, then successive fluorinations at these sites should decrease drug affinity in a linear manner[30].
This protocol is repeated in successive sweeps as either control or drug-containing solutions flow into the bath chamber and over the oocyte. […] The steady state current at −50 mV reached at each drug concentration was normalized to the steady state current at −50 mV with no drug. From these normalized values, a concentration-response curve was generated and fit with a Hill equation. IC50 and Hill coefficient values were generated from each Hill fit. […]

[1] = tested on: nicotinic receptor α-subunit Trp-149 doubly fluorinated; set-up: method as in PMID 9770444; settings: doubly fluorinating Trp-149 in the α-subunit; cited from earlier work

| Compound | potency of block (hERG S631A) | Cation – π behaviour? (hERG Tyr652 and Phe656) | reduction of potency [1] |
| --- | --- | --- | --- |
| CN(CCOc1ccc(NS(C)(=O)=O)cc1)CCc1ccc(NS(C)(=O)=O)cc1 [Dofetilide, dofetilide] | reduced | No | – |
| C=C[C@H]1C[N@@]2CC[C@H]1C[C@@H]2[C@@H](O)c1ccnc2ccc(OC)cc12 [Quinidine, quinidine] | reduced | No | – |
| CC(=O)OCC[N+](C)(C)C [acetyl choline] | – | – | nearly an order of magnitude |
